# Test results: US7476655B2, “Materials and methods for regulating blood flow” (University of Florida Research Foundation, Inc., priority 2005, dated 2009)
# Columns and labels:
# eNOS = test: catalytic activity of eNOS in cultured pulmonary artery endothelial cells ([3H]-citrulline formation from [3H]-L-arginine); assay type: cell-based; conditions: PAEC monolayers, varying concentrations, 37° C., 1 hr, compared to control (FIG. 2)
# Description: The effects of the synthetic peptides (P3, P4, and P6) of the subject invention on the catalytic activity of eNOS were examined using a cultured pulmonary artery endothelial cell (PAEC) model.
# PAEC monolayers were incubated in RPMI 1640 medium with or without (control) the presence of varying concentrations of P3, P4, or P6 at 37° C. for 1 hr. After incubation, the catalytic activity of eNOS was determined as previously described by monitoring formation of [3H]-citrulline from [3H]-L-arginine (Chen, S., J. M. Patel and E. R. Block ER (2000) “Angiotensin IV-mediated pulmonary artery vasorelaxation is due to endothelial intracellular calcium release” Am. J. Physiol. Lung Cell Mol. Physiol. 279:L849-L856; and Patel, J. M., Y. D. Li, J. L. Zhang et al. (1999) “Increased expression of calreticulin is linked to Ang-IV-mediated activation of lung endothelial NOS” Am. J. Physiol Lung Cell Mol. Physiol. 277:L794-L801).
# cGMP-specific PDE = cGMP-specific PDE activity in PAEC (hydrolysis of 3H-cGMP in supernatant); assay type: cell-based; conditions: 10 μM, 1 hr at 37° C., compared to control (FIG. 3)
# Description: The synthetic peptides were evaluated to asses any association with modulation of cGMP-specific PDE activity in PAEC.
# Cell monolayers were incubated in RPMI 1640 medium with or without (control) the presence of 10 μM each of P3, P4, P6 or Zaprinast for 1 hr at 37° C. After incubation, cells were washed, homogenized, and supernatant were collected by centrifugation at 15,000×g for 15 min at 4° C. PDE activity in the supernatant were measured by monitoring hydrolysis of 3H-cGMP as previously described (16).
# hypoxic mice lungs = test: vasodilator response in excised hypoxic mouse lungs; set-up: species or system C57BL/6J mice; conditions: 15 μM, with or without L-NAME 100 μM (FIG. 4)
# Description: Specific pathogen-free female C57BL/6J mice (30-35 g body weight) were anesthetized with pentobarbital (60 mg/kg, ip), and the lungs were excised from the thorax, ventilated with air (control) or with 0% oxygen for 1 hour at 60 breaths/min with a SAR-830 series small animal ventilator at a tidal volume of 0.6-0.8 ml/100 g body weight. After development of hypoxic vasoconstriction, vasodilator response was monitored by addition of 15 μM each of P3, P4, P6 or zaprinast with or without the presence of nitric oxide synthase inhibitor (L-NAME, 100 μM). The vasodilatory response was continuously monitored as previously described (Hu et al. (2004) Am. J. Physiol. Lung Cell Mol. Physiol. 286:[…]-[…]).
# hypoxic lungs [1] = test: in situ lung perfusion, pulmonary arterial pressure, rat model of hypoxic pulmonary hypertension; assay type: in vivo, Sprague Dawley rats; conditions: for pulmonary arterial pressure (PAP): infusion of 20 μM (FIG. 6)
# Description: (§1) Specific pathogen-free Sprague Dawley rats (200-250 g body weight) were anesthetized with pentobarbital (60 mg/kg, ip). After confirmation of deep anesthesia, the trachea was cannulated with an 18-G blunt-tipped catheter and ventilated (SAR-830/p small animal ventilator, CWE, Ardmoore, Pa.) at a tidal volume of 2.5 ml/min with warm humidified 21% O2/5% CO2/74% N2 at 60 breaths/min with peak inspiratory and expiratory pressures of 9 cm and 3 cm H2O, respectively. A thoracotomy was performed and 100 units heparin injected into the right ventricle (RV). PE-90 polyethylene tubing connected to a Cook Double Lumen Central Venous Catheter (Cook Critical Care, Bloomington, Ind.) was placed in the left atrium through the left vetricle and tied in place. After placement of another PE-90 polyethylene tube connected with a double lumen catheter in the main pulmonary artery (PA), the lung were ventilated with 21% O2/5% CO2/74% N2 (normoxic) at constant end-expiratory pressure of 20 cm H2O and perfused in situ in the open chest with RPMI 1640 without pH indicator containing 4% Ficoll at a constant flow of 2 ml/min. After 30 min, the ventilation mixture was changed to 2% O2/5% CO2/93% N2 (hypoxic) for 30 min and change in PA pressure was continuously recorded using PO-NE-MAH-P3P Lung Perfusion System software (Gould Instrument System) and the perfusate samples were collected to determine level of NO release as previously reported (Hu et al. Am. J. Physiol. Lung Cell Mol. Physiol. 286: L1066-L1074, 2004). The ventilation gas (hypoxic) was return to normoxic gas, and the lungs were perfused with P3 (20 and 40 μM) in RPMI 1640 or RMPI 1640 for 10 min, after which the hypoxic challenge with 2% O2 was repeated, and the PA pressure response was recorded.
# NO release = NO release in perfusates of in situ perfused rat lungs; assay type: in vivo, Sprague Dawley rats
# Description: as §1, with “After placement of another PE-90 polyethylene tube connected with a double lumen catheter in the main pulmonary artery (PA), the lung were ventilated with 21% O2/5% CO2/74% N2 (normoxic) at constant end-expiratory pressure of 20 cm H2O and perfused in situ in the open chest with RPMI 1640 without pH indicator containing 4% Ficoll at a constant flow of 2 ml/min.” left out
# hypoxic lungs [2] = test: in vivo vasodilation effect in rats exposed to hypoxia (10% inspired O2) for 2 to 6 weeks; set-up: species or system Sprague Dawley rats; conditions: 10 mg/kg or 20 mg/kg ip once every day
# Description: Specific pathogen-free Sprague Dawley rats (200-250 g body weight) were exposed to hypoxia (10% inspired O2) in a Coy Laboratory hypoxia chamber equipped with auto purge, airlock, and automated live animal filtration and dehumidification systems for 2 to 6 weeks. Control (normoxia) animals were maintained in similar humidity and temperature environment. Hypoxia exposure was 24 hr/day, except when the chamber was open twice a week for 10-15 min each to clean cages and replenish food and water. All rats were exposed to 12:12-hr light/dark cycle and allowed free access to standard rat food and water. Some rats were administered P3 (+P3) in saline (10 mg/kg or 20 mg/kg, ip) or saline alone (−P3) once every day starting 24 hr prior to initiation of exposure to hypoxia. After 2, 3, and 6 weeks exposure animals were use to measure various parameters including changes in pulmonary artery pressure, lung weight/body weight (LW/BW) ratio, and right vertical/heart weight (RV/HW) ratio.
Molecule,catalytic activity of eNOS (eNOS),cGMP-specific catalytic activity of PDE (cGMP-specific PDE),vasorelaxation of hypoxic mice lungs (hypoxic mice lungs),magnitude of reduction of PAP in hypoxic lung versus normoxic lungs (hypoxic lungs [1]; hypoxic compared with normoxic lungs),pulmonary arterial pressure (PAP) (hypoxic lungs [1]; hypoxic lungs),"attenuation of PAP at 40 μM relative to 20 μM (hypoxic lungs [1]; normoxic and hypoxic lungs, 40 μM)",pulmonary arterial pressure (PAP) (hypoxic lungs [1]; normoxic lungs),NO release in perfusates (NO release; hypoxic lungs (FIG. 7)),NO release in perfusates (NO release; normoxic lungs (FIG. 7)),hypoxia-induced PAP pressure (hypoxic lungs [2]; hypoxia (FIG. 11)),hypoxia-induced RV/HW ratio (hypoxic lungs [2]; hypoxia (FIG. 12))
WRRKRKES (Peptide (P6) used according to the subject invention.),significantly enhanced in a dose-dependent manner,significantly reduced,–,–,–,–,–,–,–,–,–
"CCCOc1ccccc1-c1nc2nn[nH]c2c(=O)[nH]1 [Zaprinast, reference compound]",–,loss PDE activity,vasorelaxtion,–,–,–,–,–,–,–,–
KRFNSISCSSWRRKR (Peptide (P3) used according to the subject invention.),significantly enhanced in a dose-dependent manner,significantly reduced,–,much greater,significantly attenuated,comparable,significantly attenuated,increases,increases,attenuated,attenuated
KKRFNSISCSSWRRKRKKR (Peptide (P4) used according to the subject invention.),significantly enhanced in a dose-dependent manner,significantly reduced,–,–,–,–,–,–,–,–,–
